Experimental data from paper PMC10564737, “Structure-based design of a phosphotyrosine-masked covalent ligand targeting the E3 ligase SOCS2” (Nature Communications, 2023).
Where “and” joins values, the source holds several entries; their conditions need not be identical. Identical values can stand only once.

Target: T1, HiBiT-SOCS2 fusion in HeLa cells (Homo sapiens, UniProt O14508)
T1 construct: encoding SOCS2 (32–198) in pBiT3.1-N expression vector; expressed in transfected cells; host or cells: HeLa
Assay: Split-NanoLuc CETSA, live-cell mode
Type: cell-based
Design: Produrg CETSA screening, raw signal: reference not given here
Settings: for Produrg CETSA screening, raw signal: 50uM 20hrs; for Tagg shift, live-cell CETSA: HeLa cells; for Tagg shift, live-cell CETSA / ΔT: 50 μM, 20 h; for ΔT / ΔT, individual replicates n1-n3: Prodrug screen CETSA; for ΔT: live HeLa cells, Mean n = 3
Procedure: One of the challenges with small-molecule binders displaying on-target activity with recombinant proteins, is to translate their utility to a cellular context. […] One of the advantages of CETSA is that target engagement can be monitored without the need for the development of a cell-permeable tracer molecule.
We utilized CETSA in a live-cell mode to evaluate the efficacy and rank the different prodrugs. We treated live HeLa cells with 50 μM compound (prodrugs) for 20 h and monitored Tagg shift as a proxy for the combo of prodrug permeability and unmasking (Fig. 4d). […] The observation could be because the POM group unmasking requires only esterase unlike the reliance of compounds 21–23 on esterase and phosphoramidase for unmasking an aryloxy phosphoramidate group.
N-terminal HiBiT-SOCS2 fusion was generated by encoding SOCS2 (32–198) in pBiT3.1-N expression vector (Promega). The transfection and target engagement assay were performed by modifying a NanoLuc target engagement protocol (Promega) with some small modifications. Briefly, HiBiT-SOCS2 fusion construct was transfected into HeLa cells using FuGENE HD (Promega) according to the manufacturer’s protocol. HiBiT-SOCS2 fusion construct was diluted into Transfection Carrier DNA (Promega) at a mass ratio of 1:100 or 1:10 for permeabilised and live-cell CETSA respectively. FuGENE HD was added at a ratio of 1:3 (μg DNA: μL FuGENE HD). 1 part (vol) of FuGENE HD complexes thus formed were combined with 20 parts (vol) of HeLa cells suspended at a density of 2 × 10^5 cells/mL, followed by incubation in a humidified, 37 °C + 5% CO2 incubator. After 20 h of incubation HeLa cells were detached and resuspended at a density of 2.5 × 10^5 cells/mL in Opti-MEM media without serum or phenol red but supplemented with protease inhibitor cocktail (Roche). Compounds stocks were added to cell suspension to maintain a final DMSO concentration of 1%. For the permeabilised assay format, 96-well PCR plates (Thermo) were pre-treated with digitonin to have a final well concentration of 50 μg/ml. 50 μl Opti-MEM cell suspension was then aliquoted to each well of the 96-well plate. The plates are then covered with microporous tape sheet (Qiagen) prior to incubation in a humidified, 37 °C + 5% CO2 incubator. Post-incubation we heat the PCR plates in 16-point temperature (split across two runs) curve spanning degrees 40-72 °C temperature span (CFX96 Touch Real-Time PCR Detection System, BioRad). The thermal cycler block was allowed to rise to the designated temperatures prior to placement of the PCR plates into the heating block and heat treatment for 3 min. After incubating the plates at room temperature for over 3 min, 50 μl of the Nano-Glo HiBiT Lytic mix (Promega) was added to each well. Samples were mixed by pipetting and placing the plate on an orbital shaker (600 rpm) for 5 min. 20 μl of the samples (in triplicates) were transferred to a AlphaPlate-384 plate (Perkin Elmer). Luminescence was recorded with GloMax Discover Microplate Reader (Promega). To generate apparent Tagg curves, the data is first converted to percent stabilized by relating the observed luminescence to the luminescence of the lowest temperature (40 °C) for that given sample. Data are then fitted to obtain apparent Tagg values using the Boltzmann Sigmoid equation using Graphpad Prism 9.

[1] = n=1, temperature point 4 of 16, temperature not given
[2] = n=1, temperature point 5 of 16, temperature not given
[3] = n=1, temperature point 6 of 16, temperature not given
[4] = n=1, temperature point 7 of 16, temperature not given
[5] = n=1, temperature point 8 of 16, temperature not given
[6] = n=1, temperature point 9 of 16, temperature not given
[7] = n=1, temperature point 10 of 16, temperature not given
[8] = n=1, temperature point 11 of 16, temperature not given
[9] = n=1, temperature point 12 of 16, temperature not given
[10] = n=1, temperature point 13 of 16, temperature not given
[11] = n=1, temperature point 14 of 16, temperature not given
[12] = n=1, temperature point 15 of 16, temperature not given
[13] = n=1, temperature point 16 of 16, temperature not given
[14] = n=2, temperature point 1 of 16, temperature not given
[15] = n=2, temperature point 2 of 16, temperature not given
[16] = n=2, temperature point 3 of 16, temperature not given
[17] = n=2, temperature point 5 of 16, temperature not given
[18] = n=2, temperature point 6 of 16, temperature not given
[19] = n=2, temperature point 7 of 16, temperature not given
[20] = n=2, temperature point 8 of 16, temperature not given
[21] = n=2, temperature point 9 of 16, temperature not given
[22] = n=2, temperature point 10 of 16, temperature not given
[23] = n=2, temperature point 11 of 16, temperature not given
[24] = n=2, temperature point 12 of 16, temperature not given
[25] = n=2, temperature point 13 of 16, temperature not given
[26] = n=2, temperature point 14 of 16, temperature not given
[27] = n=2, temperature point 15 of 16, temperature not given
[28] = n=2, temperature point 16 of 16, temperature not given

T1 sequence (O14508 32-198): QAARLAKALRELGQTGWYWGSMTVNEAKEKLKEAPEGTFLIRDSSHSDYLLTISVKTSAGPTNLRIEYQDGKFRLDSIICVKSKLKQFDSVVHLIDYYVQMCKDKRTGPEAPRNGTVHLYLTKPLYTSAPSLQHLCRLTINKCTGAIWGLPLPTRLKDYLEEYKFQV
T1 sequence (Q15370 whole entry, further chain, the tested form may be a part): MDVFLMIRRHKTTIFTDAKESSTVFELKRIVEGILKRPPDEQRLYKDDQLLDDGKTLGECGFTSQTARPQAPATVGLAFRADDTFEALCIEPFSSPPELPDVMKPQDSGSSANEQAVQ
T1 sequence (Q15369 whole entry, further chain, the tested form may be a part): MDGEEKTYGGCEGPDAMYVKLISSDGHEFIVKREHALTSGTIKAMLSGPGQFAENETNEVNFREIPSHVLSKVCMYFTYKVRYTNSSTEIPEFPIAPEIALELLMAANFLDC

Structure (SMILES): O=C(CCl)Nc1cccc(CNC(=O)[C@H](Cc2ccc(OP(=O)(O)O)cc2)NC(=O)Cc2ccc(F)cc2)c1 [MN551]
- Produrg CETSA screening, raw signal [1]: 51906 and 74271 and 83631
- Produrg CETSA screening, raw signal [2]: 62246 and 51464 and 85761
- Produrg CETSA screening, raw signal [3]: 108788 and 87275 and 106856
- Produrg CETSA screening, raw signal [4]: 132974 and 140531 and 140435
- Produrg CETSA screening, raw signal [5]: 134181 and 150079 and 139460
- Produrg CETSA screening, raw signal [6]: 189390 and 210146 and 247725
- Produrg CETSA screening, raw signal [7]: 222849 and 214562 and 260657
- Produrg CETSA screening, raw signal [8]: 306316 and 347377 and 363834
- Produrg CETSA screening, raw signal [9]: 497790 and 541910 and 544913
- Produrg CETSA screening, raw signal [10]: 482302 and 510836 and 519812
- Produrg CETSA screening, raw signal [11]: 563762 and 585700 and 590798
- Produrg CETSA screening, raw signal [12]: 665581 and 663053 and 701220
- Produrg CETSA screening, raw signal [13]: 691060 and 708174 and 757604
- Produrg CETSA screening, raw signal [14]: 29701 and 32684 and 58114
- Produrg CETSA screening, raw signal [15]: 46564 and 62785 and 77591
- Produrg CETSA screening, raw signal [16]: 123506 and 129184 and 115193
- Produrg CETSA screening, raw signal [17]: 47087 and 55743 and 78578
- Produrg CETSA screening, raw signal [18]: 98105 and 105595 and 117544
- Produrg CETSA screening, raw signal [19]: 144950 and 158240 and 171572
- Produrg CETSA screening, raw signal [20]: 135100 and 139766 and 168368
- Produrg CETSA screening, raw signal [21]: 229091 and 227474 and 261588
- Produrg CETSA screening, raw signal [22]: 267450 and 271378 and 303431
- Produrg CETSA screening, raw signal [23]: 327561 and 343740 and 362839
- Produrg CETSA screening, raw signal [24]: 483965 and 500271 and 541590
- Produrg CETSA screening, raw signal [25]: 506853 and 509845 and 531489
- Produrg CETSA screening, raw signal [26]: 591756 and 578279 and 588133
- Produrg CETSA screening, raw signal [27]: 597206 and 580381 and 582472
- Produrg CETSA screening, raw signal [28]: 620665 and 663583 and 665832
- Produrg CETSA screening, raw signal (n=3, Temp, 0C 59.2): 55622
- Produrg CETSA screening, raw signal (n=3, Temp, 0C 62.3): 33828 and 45066 and 46746
- Produrg CETSA screening, raw signal (n=3, Temp, 0C 66.1): 15770 and 17572 and 22773
- Produrg CETSA screening, raw signal (n=3, Temp, 0C 69.3): 14086 and 13763 and 18636
- Produrg CETSA screening, raw signal (n=3, Temp, 0C 71.1): 13296 and 19284 and 20568
- Produrg CETSA screening, raw signal (n=3, Temp, 0C 72): 12696 and 17884 and 19057
- Tagg shift, live-cell CETSA: 2 °C
- ΔT: 1.99 oC
- ΔT, individual replicates n1-n3 (single replicates): 0.38 oC and 4.34 oC and 1.24 oC

Structure (SMILES): CC(C)(C)C(=O)OCOP(=O)(OCOC(=O)C(C)(C)C)Oc1ccc(C[C@H](NC(=O)Cc2ccc(F)cc2)C(=O)NCc2cccc(NC(=O)CCl)c2)cc1 [MN714]
- Produrg CETSA screening, raw signal [1]: 54032 and 80376 and 105532
- Produrg CETSA screening, raw signal [2]: 90582 and 99338 and 174703
- Produrg CETSA screening, raw signal [3]: 139751 and 167289 and 205811
- Produrg CETSA screening, raw signal [4]: 195985 and 234426 and 281536
- Produrg CETSA screening, raw signal [5]: 244882 and 229067 and 241218
- Produrg CETSA screening, raw signal [6]: 256289 and 277913 and 306068
- Produrg CETSA screening, raw signal [7]: 320763 and 321677 and 363535
- Produrg CETSA screening, raw signal [8]: 372242 and 395029 and 425781
- Produrg CETSA screening, raw signal [9]: 423872 and 436050 and 431053
- Produrg CETSA screening, raw signal [10]: 366601 and 377426 and 420904
- Produrg CETSA screening, raw signal [11]: 362714 and 367767 and 404526
- Produrg CETSA screening, raw signal [12]: 419874 and 426204 and 438598
- Produrg CETSA screening, raw signal [13]: 418575 and 457050 and 469972
- Produrg CETSA screening, raw signal [14]: 80745 and 156547 and 107330
- Produrg CETSA screening, raw signal [15]: 108259 and 123901 and 132020
- Produrg CETSA screening, raw signal [16]: 72847 and 107017 and 131297
- Produrg CETSA screening, raw signal (n=2, temperature point 4 of 16, temperature not given): 98808 and 124869 and 145900
- Produrg CETSA screening, raw signal [17]: 73033 and 127162 and 126167
- Produrg CETSA screening, raw signal [18]: 163432 and 190209 and 191740
- Produrg CETSA screening, raw signal [19]: 242162 and 237309 and 241895
- Produrg CETSA screening, raw signal [20]: 244528 and 287537 and 296136
- Produrg CETSA screening, raw signal [21]: 280328 and 320314 and 333974
- Produrg CETSA screening, raw signal [22]: 308215 and 329369 and 371393
- Produrg CETSA screening, raw signal [23]: 342961 and 395565 and 371949
- Produrg CETSA screening, raw signal [24]: 424106 and 411160 and 460047
- Produrg CETSA screening, raw signal [25]: 397001 and 430594 and 470735
- Produrg CETSA screening, raw signal [26]: 424646 and 453700 and 455391
- Produrg CETSA screening, raw signal [27]: 402201 and 445060 and 429166
- Produrg CETSA screening, raw signal [28]: 423530 and 445088 and 469114
- Produrg CETSA screening, raw signal (n=3, Temp, 0C 62.3): 15991
- Produrg CETSA screening, raw signal (n=3, Temp, 0C 66.1): 13409 and 15862 and 18690
- Produrg CETSA screening, raw signal (n=3, Temp, 0C 69.3): 10941 and 16787 and 17374
- Produrg CETSA screening, raw signal (n=3, Temp, 0C 71.1): 8072 and 11559 and 15104
- Produrg CETSA screening, raw signal (n=3, Temp, 0C 72): 10040 and 12206 and 15596
- EC50 (2 hours EC50, MN714 dose response CETSA, Mean): 3.77 µM
- EC50 (2 hours EC50, individual replicates n1-n4, MN714 dose response CETSA, single replicates): 2.69 µM and 3.55 µM and 5.05 µM
- EC50 (8 hours EC50, MN714 dose response CETSA, Mean): 2.52 µM
- EC50 (8 hours EC50, individual replicates n1-n4, MN714 dose response CETSA, single replicates): 1.93 µM and 3.11 µM and 0.902 µM and 4.13 µM
- EC50 (EC50, live-cell CETSA, 2 h of treatment): 3.8 µM
- EC50 (EC50, live-cell CETSA, 8 h of treatment): 2.5 µM
- Tagg shift, live-cell CETSA: consistent superior SOCS2 engagement
- ΔT: 4.89 oC
- ΔT, individual replicates n1-n3 (single replicates): 4.83 oC and 5.25 oC and 4.59 oC
